From patent US20210323908A1, “PROCESS FOR PRODUCING TCA CYCLE INTERMEDIATE CONJUGATES” (IMBRIA PHARMACEUTICALS, INC., priority 2020, published 2021)

How the values were obtained:
Assay type in all cases: physicochemical
[1] = Decomposition of the product in hot water, observed during work-up; details: in water at 70-80° C.
Experimental: The reaction mixtures were filtered to remove solvents. The wet cake was charged to a reactor. […] 6 kg of MS001 Silica Thiol was added to the filtrate at about 60-70° C., stirred for 1 hour, and filtered through a pad of fresh Celite.
A total of 20 kg of a compound of Formula (X) was made from 56.6 kg of a compound of Formula (IV), with 98.0% and a 73.5% yield. The yield of the manufacture is consistent to the Lab batch.

[2] = Stability of the Type A crystal polymorph (stated as a conclusion, no method given); details: solid crystal polymorph identified as Type A
[3] = Solubility of the Type A crystal polymorph (stated as a conclusion, no method given); details: solid crystal polymorph identified as Type A

N[C@@H](COC(=O)CCC(=O)O)C(=O)O [Formula (X)]
stability in water at elevated temperature [1]: could be decomposed in water
stability of the solid crystal polymorph Type A [2]: highly stable
solubility of the solid crystal polymorph Type A [3]: soluble
